Calls of active or inactive are those of the source. The rule behind the calls is not given here.
Legend:
Bacillus subtilis [1] = test: Antibacterial activity against Bacillus subtilis ATCC 6633 at 750 ug/mL in synthetic medium by disc-plate assay in presence of 5000 ug/mL glutamic acid; format: functional
Bacillus subtilis [2] = test: Antibacterial activity against Bacillus subtilis ATCC 6633 at 15 ug/mL in synthetic medium by disc-plate assay; format: functional; settings: read-out: IZ
Bacillus subtilis [3] = test: Antibacterial activity against Bacillus subtilis ATCC 6633 at 750 ug/mL in synthetic medium by disc-plate assay in presence of 250 ug/mL glutamic acid; format: functional
Escherichia coli [4] = test: Antibacterial activity against Escherichia coli ATCC 10536 in synthetic medium by disc-plate assay; format: functional, organism-based
Staphylococcus aureus = test: Antibacterial activity against Staphylococcus aureus ATCC 6538P in complex natural medium by disc-plate assay; format: functional, organism-based
Bacillus subtilis [5] = test: Antibacterial activity against Bacillus subtilis ATCC 6633 at 750 ug/mL in synthetic medium by disc-plate assay in presence of 500 ug/mL glutamic acid; format: functional
Bacillus subtilis [6] = test: Antibacterial activity against Bacillus subtilis ATCC 6633 at 120 ug/mL in synthetic medium by disc-plate assay; format: functional; settings: read-out: IZ
Bacillus subtilis [7] = test: Antibacterial activity against Bacillus subtilis ATCC 6633 at 500 ug/mL in synthetic medium by disc-plate assay; format: functional; settings: read-out: IZ
Bacillus subtilis [8] = test: Antibacterial activity against Bacillus subtilis ATCC 6633 at 750 ug/mL in synthetic medium by disc-plate assay in presence of 120 ug/mL glutamic acid; format: functional
Bacillus subtilis [9] = test: Antibacterial activity against Bacillus subtilis ATCC 6633 at 750 ug/mL in synthetic medium by disc-plate assay in presence of 3000 ug/mL glutamic acid; format: functional
Bacillus subtilis [10] = test: Antibacterial activity against Bacillus subtilis ATCC 6633 at 750 ug/mL in synthetic medium by disc-plate assay; format: functional; settings: read-out: IZ
Bacillus subtilis [11] = test: Antibacterial activity against Bacillus subtilis ATCC 6633 at 750 ug/mL in synthetic medium by disc-plate assay in presence of 750 ug/mL glutamic acid; format: functional
Bacillus subtilis [12] = test: Antibacterial activity against Bacillus subtilis ATCC 6633 at 750 ug/mL in synthetic medium by disc-plate assay in presence of 1000 ug/mL glutamic acid; format: functional
Escherichia coli [13] = test: Antibacterial activity against Escherichia coli ATCC 10536 in complex natural medium by disc-plate assay; format: functional, organism-based
Bacillus subtilis [14] = test: Antibacterial activity against Bacillus subtilis ATCC 6633 at 30 ug/mL in synthetic medium by disc-plate assay; format: functional; settings: read-out: IZ
Bacillus subtilis [15] = test: Antibacterial activity against Bacillus subtilis ATCC 6633 at 60 ug/mL in synthetic medium by disc-plate assay; format: functional; settings: read-out: IZ
Bacillus subtilis [16] = test: Antibacterial activity against Bacillus subtilis ATCC 6633 at 750 ug/mL in complex natural medium by disc-plate assay; format: functional, organism-based
Bacillus subtilis [17] = test: Antibacterial activity against Bacillus subtilis ATCC 6633 at 750 ug/mL in synthetic medium by disc-plate assay in presence of 30 ug/mL glutamic acid; format: functional
Bacillus subtilis [18] = test: Antibacterial activity against Bacillus subtilis ATCC 6633 at 250 ug/mL in synthetic medium by disc-plate assay; format: functional; settings: read-out: IZ
Bacillus subtilis [19] = test: Antibacterial activity against Bacillus subtilis ATCC 6633 at 750 ug/mL in synthetic medium by disc-plate assay in presence of 60 ug/mL glutamic acid; format: functional
Bacillus subtilis [20] = test: Antibacterial activity against Bacillus subtilis ATCC 6633 at 750 ug/mL in synthetic medium by disc-plate assay in presence of 10 ug/mL glutamic acid; format: functional

C=C(C(=O)O)[C@@H]1CC[C@@]2(C)CCCC(=C)[C@@H]2C1 [COSTIC ACID]
inhibition (INH) (Bacillus subtilis [1]): 89%
inhibition zone (IZ) (Bacillus subtilis [1]): 18 mm
zone of inhibition at 15 µg/mL (Bacillus subtilis [2]): 0 mm
inhibition (INH) (Bacillus subtilis [3]): 74%
inhibition zone (IZ) (Bacillus subtilis [3]): 21 mm
Activity (Escherichia coli [4]): inactive
Activity (Staphylococcus aureus): inactive
inhibition (INH) (Bacillus subtilis [5]): 80%
inhibition zone (IZ) (Bacillus subtilis [5]): 20 mm
zone of inhibition at 120 µg/mL (Bacillus subtilis [6]): 19 mm
zone of inhibition at 500 µg/mL (Bacillus subtilis [7]): 24 mm
inhibition (INH) (Bacillus subtilis [8]): 74%
inhibition zone (IZ) (Bacillus subtilis [8]): 21 mm
inhibition (INH) (Bacillus subtilis [9]): 89%
inhibition zone (IZ) (Bacillus subtilis [9]): 18 mm
zone of inhibition at 750 µg/mL (Bacillus subtilis [10]): 26 mm
inhibition at 750 µg/mL (Bacillus subtilis [11]): 85%
zone of inhibition at 750 µg/mL (Bacillus subtilis [11]; read-out: IZ): 19 mm
inhibition (INH) (Bacillus subtilis [12]): 89%
inhibition zone (IZ) (Bacillus subtilis [12]): 18 mm
Activity (Escherichia coli [13]): inactive
zone of inhibition at 30 µg/mL (Bacillus subtilis [14]): 14.5 mm
zone of inhibition at 60 µg/mL (Bacillus subtilis [15]): 16.5 mm
Activity (Bacillus subtilis [16]): inactive
inhibition (INH) (Bacillus subtilis [17]): 40%
inhibition zone (IZ) (Bacillus subtilis [17]): 24 mm
zone of inhibition at 250 µg/mL (Bacillus subtilis [18]): 22 mm
inhibition (INH) (Bacillus subtilis [19]): 60%
inhibition zone (IZ) (Bacillus subtilis [19]): 22.5 mm
inhibition (INH) (Bacillus subtilis [20]): 0%
inhibition zone (IZ) (Bacillus subtilis [20]): 26 mm
